# Target: T1, α4β2 subtype of nicotinic acetylcholine receptors (Rattus norvegicus, UniProt P09483+P12390)
# T1 construct: examined using rat brain membrane obtained from whole homogenized brain; from tissue; host or cells: rat whole brain membranes (Fischer-344 male rats)
# Test: Binding assay at α4β2 subtype of nicotinic acetylcholine receptors ([3H]-cytisine, rat brain membrane)
# From the text: The methods for evaluating the binding capabilities of the compounds at nicotinic acetylcholine receptors are different by subtypes of receptors. The binding capabilities of the compounds at α4β2 nicotinic acetylcholine receptors are examined using rat brain membrane obtained from whole homogenized brain, and determining the inhibiting rate of the compounds against [^3H]-cytisine binding to said brain membrane. Furthermore, the binding capabilities of the compounds at α1β1γδ nicotinic acetylcholine receptors are examined using homogenized rat muscle, and determining the inhibiting rate of the compounds against [^3H]-α-bungarotoxin binding to said muscle homogenate.
# Binding Assays at α4β2 Subtype of Nicotinic Acetylcholine Receptors
# (1) Preparation of Rat Brain Membrane Containing α4β2 Subtype of Nicotinic Acetylcholine Receptors
# Rats were housed in the breeding cage controlled of the room temperature at 23±1° C., and the humidity of 55±5% for 1 to 4 weeks. Rats (3 to 4 rats per a cage) were housed with lights on for 12 hours daily (from 7:00 to 19:00), and allowed free access to food and water.
# Preparation of rat brain membrane containing α4β2 subtype of nicotinic acetylcholine receptors was performed as follow. That is, rat brains were isolated just after sacrificed by decapitation, washed with ice-cooled saline solution and then frozen at −80° C. with liquid nitrogen and stored till using. After thawing the frozen brain, the brain was homogenized in 10 volumes of ice-cooled buffer solution (50 mM of Tris-HCl, 120 mM of NaCl, 5 mM of KCl, 1 mM of MgCl2, 2 mM of CaCl2; pH 7.4; 4° C.) using homogenizer (HG30, Hitachi Kohki Ltd.) for 30 seconds, and the homogenate were centrifuged under 1,000×G for 10 minutes at 4° C. The resulting supernatant was separated and the pellet was homogenized again with half volume of aforementioned prior buffer solution and centrifuged under the same conditions. Combined supernatant was further centrifuged under 40,000×G for 20 minutes at 4° C. The pellet was suspended in buffer solution and used for binding assays at receptors.
# (2) Experiments of α4β2 Subtype of Nicotinic Acetylcholine Receptors Binding
# Suspensions of membrane pellets containing 400-600 μg of protein were added to test tubes containing test compounds and [^3H]-cytisine (2 nM) in a final volume of 200 μl and incubated for 75 minutes in ice-cooled bath. The samples were isolated by vacuum filtration onto Whatman GF/B filters, which were prerinsed with 0.5% polyethylenimine just prior to sample filtration, using Brandel multi manifold cell harvester. The filters were rapidly washed with buffer solution (3×1 ml). The filters were counted in 3 ml of clearsol I (Nacalai Tesque Inc.).
# The analyses of the experimental results were conducted by using the Accufit Competition Program (Beckman Ltd.).
# T1 sequence (P09483 31-630): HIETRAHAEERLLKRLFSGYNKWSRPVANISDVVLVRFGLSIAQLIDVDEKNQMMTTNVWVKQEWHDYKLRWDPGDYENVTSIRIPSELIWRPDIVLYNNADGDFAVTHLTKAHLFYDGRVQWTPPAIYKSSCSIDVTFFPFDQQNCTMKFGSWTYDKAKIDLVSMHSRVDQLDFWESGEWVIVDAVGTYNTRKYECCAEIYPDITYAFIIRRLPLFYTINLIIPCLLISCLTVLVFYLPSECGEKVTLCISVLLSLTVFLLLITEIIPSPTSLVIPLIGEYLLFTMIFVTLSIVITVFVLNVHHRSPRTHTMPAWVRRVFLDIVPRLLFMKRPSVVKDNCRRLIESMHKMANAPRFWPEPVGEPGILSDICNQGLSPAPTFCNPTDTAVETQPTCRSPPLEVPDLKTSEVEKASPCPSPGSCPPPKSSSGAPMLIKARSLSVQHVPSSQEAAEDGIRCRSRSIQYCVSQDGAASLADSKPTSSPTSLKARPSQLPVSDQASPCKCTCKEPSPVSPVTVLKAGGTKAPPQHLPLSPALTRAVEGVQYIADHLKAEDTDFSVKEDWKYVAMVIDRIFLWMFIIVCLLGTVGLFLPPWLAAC
# T1 sequence (P12390 25-500): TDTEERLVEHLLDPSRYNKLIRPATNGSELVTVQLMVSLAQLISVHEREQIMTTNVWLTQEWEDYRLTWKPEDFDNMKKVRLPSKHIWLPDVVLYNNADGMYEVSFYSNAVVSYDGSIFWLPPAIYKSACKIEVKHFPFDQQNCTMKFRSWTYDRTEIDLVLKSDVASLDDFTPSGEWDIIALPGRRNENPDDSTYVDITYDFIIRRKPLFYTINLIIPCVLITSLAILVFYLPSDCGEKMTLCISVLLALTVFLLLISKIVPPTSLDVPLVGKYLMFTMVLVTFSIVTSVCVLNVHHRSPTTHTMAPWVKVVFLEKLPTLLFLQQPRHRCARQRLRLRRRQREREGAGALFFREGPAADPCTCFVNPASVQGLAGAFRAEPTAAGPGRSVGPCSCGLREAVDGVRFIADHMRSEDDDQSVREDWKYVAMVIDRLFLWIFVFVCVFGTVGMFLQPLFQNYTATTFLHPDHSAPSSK
row,Compound,Ki
1,"Clc1ccc(C2=NCCCN2)cn1 [Compound 2, 2-(6-chloro-3-pyridyl)-1,4,5,6-tetrahydropyrimidine]",13 nM
2,"Clc1ncc(C2=NCCCN2)s1 [Compound 22, 2-(2-chloro-5-thiazolyl)-1,4,5,6-tetrahydropyrimidine]",429 nM
3,"CN1CCN=C1c1ccc(Cl)nc1 [Compound 3, 2-(6-chloro-3-pyridyl)-1-methyl-2-imidazoline]",45 nM
